Results taken from PubChem BioAssay (NCI).
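Protocol summary: plate cells (96-well), add compound at 5 concentrations, incubate 48 h, interpolate endpoints linearly. GI50 marks 50% less growth. At the TGI there is no net growth.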

Assays:
Experiment in all cases: inhibition of tumour cell growth, NCI panel, 48 h
SF-295 CNS = test system: SF-295 CNS
TK-10 renal = test system: TK-10 renal
SK-MEL-5 melanoma = test system: SK-MEL-5 melanoma
MCF7 breast = test system: MCF7 breast
MOLT-4 leukemia = test system: MOLT-4 leukemia
NCI-H522 lung = test system: NCI-H522 lung
786-0 renal = test system: 786-0 renal
CCRF-CEM leukemia = test system: CCRF-CEM leukemia
SNB-19 CNS = test system: SNB-19 CNS
PC-3 prostate = test system: PC-3 prostate
K-562 leukemia = test system: K-562 leukemia
OVCAR-3 ovarian = test system: OVCAR-3 ovarian
SW-620 colon = test system: SW-620 colon
CAKI-1 renal = test system: CAKI-1 renal
COLO 205 colon = test system: COLO 205 colon
SK-MEL-28 melanoma = test system: SK-MEL-28 melanoma
MDA-MB-231 breast = test system: MDA-MB-231 breast
UACC-62 melanoma = test system: UACC-62 melanoma
HCT-116 colon = test system: HCT-116 colon
NCI-H460 lung = test system: NCI-H460 lung
SK-MEL-2 melanoma = test system: SK-MEL-2 melanoma
HOP-62 NSCLC = test system: HOP-62 NSCLC
MALME-3M melanoma = test system: MALME-3M melanoma
HT29 colon = test system: HT29 colon
MDA-MB-435 = test system: MDA-MB-435
T-47D breast = test system: T-47D breast
LOX IMVI melanoma = test system: LOX IMVI melanoma
ACHN renal = test system: ACHN renal
A549 NSCLC = test system: A549 NSCLC
SN12C renal = test system: SN12C renal
SNB-75 CNS = test system: SNB-75 CNS
SF-268 CNS = test system: SF-268 CNS
NCI-H23 lung = test system: NCI-H23 lung
RXF 393 renal = test system: RXF 393 renal
M14 melanoma = test system: M14 melanoma
OVCAR-8 ovarian = test system: OVCAR-8 ovarian
UACC-257 melanoma = test system: UACC-257 melanoma
HS 578T breast = test system: HS 578T breast
BT-549 breast = test system: BT-549 breast
RPMI-8226 leukemia = test system: RPMI-8226 leukemia
SF-539 CNS = test system: SF-539 CNS
KM12 colon = test system: KM12 colon
OVCAR-5 ovarian = test system: OVCAR-5 ovarian
NCI-H226 lung = test system: NCI-H226 lung
EKVX NSCLC = test system: EKVX NSCLC
UO-31 renal = test system: UO-31 renal
HCC-2998 colon = test system: HCC-2998 colon
HOP-92 NSCLC = test system: HOP-92 NSCLC
SR leukemia = test system: SR leukemia
OVCAR-4 ovarian = test system: OVCAR-4 ovarian
NCI/ADR-RES ovarian = test system: NCI/ADR-RES ovarian
HCT-15 colon = test system: HCT-15 colon
U251 CNS = test system: U251 CNS
SK-OV-3 ovarian = test system: SK-OV-3 ovarian
A498 renal = test system: A498 renal
DU-145 prostate = test system: DU-145 prostate
IGROV1 ovarian = test system: IGROV1 ovarian

CCc1c(Oc2ccc(C(C)=O)cc2)c2ccccc2[nH]c1=O
GI50 (SF-295 CNS): 16.3 µM | TGI (SF-295 CNS): > 69.4 µM | GI50 (TK-10 renal): 7.03 µM | TGI (TK-10 renal): 28.6 µM | GI50 (SK-MEL-5 melanoma): 13 µM | TGI (SK-MEL-5 melanoma): 27.5 µM | GI50 (MCF7 breast): 10.5 µM | TGI (MCF7 breast): > 71.7 µM | GI50 (MOLT-4 leukemia): 28 µM | TGI (MOLT-4 leukemia): > 100 µM | GI50 (NCI-H522 lung): 14.1 µM | TGI (NCI-H522 lung): > 68.3 µM | GI50 (786-0 renal): 21.7 µM | TGI (786-0 renal): > 72.1 µM | TGI (CCRF-CEM leukemia): > 43.6 µM | GI50 (SNB-19 CNS): 30.7 µM | TGI (SNB-19 CNS): > 100 µM | GI50 (PC-3 prostate): 0.97 µM | TGI (PC-3 prostate): > 40.8 µM | GI50 (K-562 leukemia): 18.8 µM | TGI (K-562 leukemia): > 76.9 µM | GI50 (OVCAR-3 ovarian): 26 µM | TGI (OVCAR-3 ovarian): 80.9 µM | GI50 (SW-620 colon): 22.2 µM | TGI (SW-620 colon): 67.4 µM | GI50 (CAKI-1 renal): 15.8 µM | TGI (CAKI-1 renal): 53.3 µM | GI50 (COLO 205 colon): 13.7 µM | TGI (COLO 205 colon): 40.7 µM | GI50 (SK-MEL-28 melanoma): 50.7 µM | TGI (SK-MEL-28 melanoma): > 100 µM | GI50 (MDA-MB-231 breast): 7.03 µM | TGI (MDA-MB-231 breast): 39.1 µM | GI50 (UACC-62 melanoma): 3.74 µM | TGI (UACC-62 melanoma): 16.5 µM | GI50 (HCT-116 colon): 18.5 µM | TGI (HCT-116 colon): 52.8 µM | GI50 (NCI-H460 lung): 18.7 µM | TGI (NCI-H460 lung): 65.7 µM | GI50 (SK-MEL-2 melanoma): 59.5 µM | TGI (SK-MEL-2 melanoma): > 100 µM | GI50 (HOP-62 NSCLC): 20.4 µM | TGI (HOP-62 NSCLC): 74.3 µM | GI50 (MALME-3M melanoma): 9.09 µM | TGI (MALME-3M melanoma): 42.3 µM | GI50 (HT29 colon): 26.9 µM | TGI (HT29 colon): > 100 µM | GI50 (MDA-MB-435): 16.5 µM | TGI (MDA-MB-435): > 100 µM | GI50 (T-47D breast): 4.07 µM | TGI (T-47D breast): 24.6 µM | GI50 (LOX IMVI melanoma): 17.3 µM | TGI (LOX IMVI melanoma): 46.2 µM | GI50 (ACHN renal): 16.7 µM | TGI (ACHN renal): 63.5 µM | GI50 (A549 NSCLC): 18.5 µM | TGI (A549 NSCLC): 59.5 µM | GI50 (SN12C renal): 16.6 µM | TGI (SN12C renal): 61.8 µM | GI50 (SNB-75 CNS): > 26.9 µM | TGI (SNB-75 CNS): > 100 µM | GI50 (SF-268 CNS): 18.1 µM | TGI (SF-268 CNS): 61 µM | GI50 (NCI-H23 lung): 18.7 µM | TGI (NCI-H23 lung): 59.5 µM | GI50 (RXF 393 renal): 20.1 µM | TGI (RXF 393 renal): 45.7 µM | GI50 (M14 melanoma): 18.5 µM | TGI (M14 melanoma): 65.9 µM | GI50 (OVCAR-8 ovarian): 19.1 µM | TGI (OVCAR-8 ovarian): 53.4 µM | GI50 (UACC-257 melanoma): 14.5 µM | TGI (UACC-257 melanoma): 55.1 µM | GI50 (HS 578T breast): 4.3 µM | TGI (HS 578T breast): 43.6 µM | GI50 (BT-549 breast): 17.6 µM | TGI (BT-549 breast): 70.8 µM | GI50 (RPMI-8226 leukemia): 3.65 µM | TGI (RPMI-8226 leukemia): > 42.5 µM | GI50 (SF-539 CNS): 15.7 µM | TGI (SF-539 CNS): 38.6 µM | GI50 (KM12 colon): 18.6 µM | TGI (KM12 colon): > 60.9 µM | GI50 (OVCAR-5 ovarian): 31.8 µM | TGI (OVCAR-5 ovarian): > 100 µM | GI50 (NCI-H226 lung): 2.8 µM | TGI (NCI-H226 lung): 43.9 µM | GI50 (EKVX NSCLC): 9.65 µM | TGI (EKVX NSCLC): > 66 µM | GI50 (UO-31 renal): 19.5 µM | TGI (UO-31 renal): > 100 µM | GI50 (HCC-2998 colon): 14.3 µM | TGI (HCC-2998 colon): 30 µM | GI50 (HOP-92 NSCLC): 1.67 µM | TGI (HOP-92 NSCLC): 11.7 µM | GI50 (SR leukemia): 9.09 µM | TGI (SR leukemia): > 100 µM | GI50 (OVCAR-4 ovarian): 70 µM | TGI (OVCAR-4 ovarian): > 100 µM | GI50 (NCI/ADR-RES ovarian): 23 µM | TGI (NCI/ADR-RES ovarian): > 74 µM | GI50 (HCT-15 colon): 16.4 µM | TGI (HCT-15 colon): 96.8 µM | GI50 (U251 CNS): 19.2 µM | TGI (U251 CNS): > 82 µM | GI50 (SK-OV-3 ovarian): 21 µM | TGI (SK-OV-3 ovarian): 74.5 µM | GI50 (A498 renal): 17.2 µM | TGI (A498 renal): 32 µM | GI50 (DU-145 prostate): 25.4 µM | TGI (DU-145 prostate): 73.6 µM | GI50 (IGROV1 ovarian): 28.8 µM | TGI (IGROV1 ovarian): > 100 µM
